Measurements as given in doi:10.1101/2024.11.09.622828v1 (biorxiv, 2024).

Assays:
[1] = target: LDH-A (lactate dehydrogenase-A); assay: NADH oxidation at […] nm, crude goat liver enzyme; format: biochemical, Capra hircus; details: 1.8 mM pyruvate, 5 mM NADH, 50 mM Tris pH 7.6
[2] = target: T1, Porcine pancreatic α-amylase (PPA) (Sus scrofa, UniProt P00690); assay: DNS reducing sugar assay, […] nm; format: biochemical
T1 sequence (P00690 16-511): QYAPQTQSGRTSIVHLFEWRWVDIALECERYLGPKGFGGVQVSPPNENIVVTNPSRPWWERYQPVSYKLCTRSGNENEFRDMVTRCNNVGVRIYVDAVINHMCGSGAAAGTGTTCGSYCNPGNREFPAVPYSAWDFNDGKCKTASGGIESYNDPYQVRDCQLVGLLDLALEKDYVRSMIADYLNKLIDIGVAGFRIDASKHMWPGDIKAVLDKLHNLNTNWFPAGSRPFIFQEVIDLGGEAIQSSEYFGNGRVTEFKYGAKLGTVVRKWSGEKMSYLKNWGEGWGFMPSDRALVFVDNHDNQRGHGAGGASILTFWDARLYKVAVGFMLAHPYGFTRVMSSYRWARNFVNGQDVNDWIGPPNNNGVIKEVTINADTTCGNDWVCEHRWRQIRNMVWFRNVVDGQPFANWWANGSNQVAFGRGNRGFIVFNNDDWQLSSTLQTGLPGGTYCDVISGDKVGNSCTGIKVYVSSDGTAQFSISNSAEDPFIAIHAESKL

IC50 [1] [µM]	IC50 [2] [µM]	Compound
4.16		O=c1c(O)c(-c2ccc(O)c(O)c2)oc2cc(O)cc(O)c12 [Q, Quercetin]
	24	O=c1c(O)c(-c2cc(O)c(O)c(O)c2)oc2cc(O)cc(O)c12 [M, Myricetin]
	22	O=C1C[C@@H](c2ccc(O)c(O)c2)Oc2cc(O)cc(O)c21 [E, Eriodictyol]
